Laboratory results published in publication PMC6457909 (Science (New York, N.Y.), 2019).
pEC50: −log10 of the molar value.

What was measured:
[1] = test system: H1N1 A/California/07/2009 (H1/Cal); assay type: cell-based, influenza A virus; settings: read-out: virus neutralization EC50 for H1/Cal
[2] = test system: H1N1 A/New Caledonia/20/1999 (H1/NCa); assay type: cell-based, influenza A virus; settings: read-out: virus neutralization EC50 for H1/NCa
[3] = test system: influenza A group 1 viruses; assay type: cell-based, influenza A virus
In vivo pharmacokinetics = assay: In vivo pharmacokinetics; design: species or system mouse; settings: mice
[4] = test system: panel of pharmacologically relevant receptors, ion channels, and transporters; assay: In vitro selectivity profiling; assay type: binding; settings: 10 µM
H1N1 A/PR/8/1934 virus [5] = assay: Mouse influenza challenge, lethal; assay type: in vivo; settings: for survival at day 21: lethal challenge 25x MLD
H1N1 A/PR/8/1934 virus [6] = assay: Mouse influenza challenge, sublethal; assay type: in vivo; settings: for survival: sublethal challenge (MLD90)
[7] = test system: H1N1 A/PR/8/1934 virus in human bronchial epithelial cells (HBEC); assay: Viral neutralization assay in HBEC cultures; assay type: cell-based; settings: 96 hours post-infection
[8] = test system: H1N1 A/Brisbane/59/2007 HA; assay type: biochemical, influenza A virus; settings: pH 5.25
H5 HA compared to H1 HA = assay type: binding, influenza A virus
Kinetic solubility = settings: versus earlier compounds
MDCK cells = assay: Cell toxicity assay
[9] = Metabolic stability in liver microsomes; settings: human liver microsomes, versus earlier compounds
[10] = Metabolic stability in liver microsomes; settings: murine liver microsomes, versus earlier compounds

CC(=O)Nc1ccc2oc(-c3ccnc(C(=O)N4CCN([C@H](c5ccccc5)c5nnn(C)n5)CC4)c3)nc2c1 [JNJ4796]
pEC50 [1]: 7.18 | pEC50 [2]: 7.42 | breadth of virus neutralization [3]: heterosubtypic group 1 HA binding and virus neutralization breadth | half-life (t½) (In vivo pharmacokinetics; after oral administration): 2.4 h | overall bioavailability (In vivo pharmacokinetics; oral): 30.0% | plasma concentration (Cmax) (In vivo pharmacokinetics; oral administration at 10 mg/kg): 1152 ng/mL | inhibition of off-targets [4]: does not substantially inhibit any of these potential off-targets | survival at day 21 (H1N1 A/PR/8/1934 virus [5]; 10 mg/kg twice daily oral): 100% | survival at day 21 (H1N1 A/PR/8/1934 virus [5]; 50 mg/kg twice daily oral): 100% | morbidity (animal weight loss) (H1N1 A/PR/8/1934 virus [5]; lethal challenge, 50 and 10 mg/kg): only partly alleviated morbidity | survival (H1N1 A/PR/8/1934 virus [6]; 5 mg/kg twice daily oral): 100% | survival (H1N1 A/PR/8/1934 virus [6]; 15 mg/kg twice daily oral): 100% | weight loss (H1N1 A/PR/8/1934 virus [6]; sublethal challenge, 15 and 5 mg/kg twice daily): only moderate weight loss effects | viral titers [7]: dramatically reduced the viral titers | inhibition of low pH-induced HA conformational change [8]: dose-dependently prevents pH-induced transition of HA to the post-fusion conformation | decrease of binding affinity to H5 HA compared to H1 HA (H5 HA compared to H1 HA): ~ 25 fold | aqueous solubility (in words) (Kinetic solubility): increased | cytotoxicity (MDCK cells): without cytotoxicity | intrinsic clearance (in words) [9]: significantly reduced | intrinsic clearance (in words) [10]: significantly reduced
